Assay results as given in patent US12570666B2, “Furoindazole derivatives” (Bayer Aktiengesellschaft, priority 2019, dated 2026).

Biological target: T1, human GPR84 receptor (Homo sapiens, UniProt Q9NQS5)
T1 construct: frozen aliquots prepared by acCELLerate; host or cells: CHO-K1
Test: cAMP HTRF assay for identification of cellular GPR84 antagonists
Assay type: cell-based
Details: CHO-K1 cells stably expressing human GPR84; Forskolin + agonist 6-OAU (EC80); average or median values
In short: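 Forskolin-stimulated CHO-K1 cells stably expressing human GPR84, agonist-suppressed cAMP measured by HTRF (665/620 ratio) after lysis. Compounds at 11 concentrations, 20 μM to 0.07 nM, duplicate; normalized to DMSO and no-agonist controls; IC50 by 4-parameter fit.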

T1 sequence (Q9NQS5 whole entry): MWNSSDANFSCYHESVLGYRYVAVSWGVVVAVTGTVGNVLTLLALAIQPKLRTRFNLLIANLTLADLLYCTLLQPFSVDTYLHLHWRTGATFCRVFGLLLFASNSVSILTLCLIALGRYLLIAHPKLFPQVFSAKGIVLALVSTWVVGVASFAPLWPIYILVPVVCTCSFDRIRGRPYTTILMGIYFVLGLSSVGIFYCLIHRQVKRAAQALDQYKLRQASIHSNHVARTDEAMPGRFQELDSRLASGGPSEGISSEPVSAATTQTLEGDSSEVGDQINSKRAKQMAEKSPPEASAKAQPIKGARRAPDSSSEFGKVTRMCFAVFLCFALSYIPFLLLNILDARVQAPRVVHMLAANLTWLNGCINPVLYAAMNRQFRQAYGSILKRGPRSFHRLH

Compound	IC50
Cc1ccc(Cn2cc3c(n2)-c2c(oc(C(=O)NC[C@@H]4CCCO4)c2C(F)(F)F)CC3C)cn1 (mixture of isomers) [Example 253, (4±)-4-methyl-2-[(6-methylpyridin-3-yl)methyl]-N-{[(2S)-oxolan-2-yl]methyl}-8-(trifluoromethyl)-4,5-dihydro-2H-furo[2,3-g]indazole-7-carboxamide]	5 nM
O=C(NCc1cnc(C2CC2)cn1)c1oc2c(c1C(F)(F)F)-c1nn(C[C@H]3COCCO3)cc1CC2 [Example 321, N-[(5-cyclopropylpyrazin-2-yl)methyl]-2-{[(2S)-1,4-dioxan-2-yl]methyl}-8-(trifluoromethyl)-4,5-dihydro-2H-furo[2,3-g]indazole-7-carboxamide]	3 nM
Cc1cc(Cn2cc3c(n2)-c2c(oc(C(=O)NC[C@@H]4CCCO4)c2C)CC3)ccn1 [Example 79, 8-methyl-2-[(2-methylpyridin-4-yl)methyl]-N-[(2S)-tetrahydrofuran-2-ylmethyl]-4,5-dihydro-2H-furo[2,3-g]indazole-7-carboxamide]	58 nM
Cc1cccc(Cn2cc3c(n2)-c2c(oc(C(=O)NCc4cc(C5CC5)on4)c2C)CC3)n1 [Example 68, N-[(5-cyclopropyl-1,2-oxazol-3-yl)methyl]-8-methyl-2-[(6-methylpyridin-2-yl)methyl]-4,5-dihydro-2H-furo[2,3-g]indazole-7-carboxamide]	170 nM
Cc1c(C(=O)NCC2COC2)oc2c1-c1nn(Cc3ccccn3)cc1CC2 [Example 36, 8-methyl-N-(oxetan-3-ylmethyl)-2-(pyridin-2-ylmethyl)-4,5-dihydro-2H-furo[2,3-g]indazole-7-carboxamide]	1720 nM
O=C(NC[C@@H]1COCCO1)c1oc2c(c1C(F)(F)F)-c1nn(Cc3ccncc3)cc1C1(CC1)C2 [Example 216, N-[(2R)-1,4-Dioxan-2-ylmethyl]-2′-(pyridin-4-ylmethyl)-8′-(trifluormethyl)-2′,5′-dihydrospiro[cyclopropan-1,4′-furo[2,3-g]indazol]-7′-carboxamide]	6 nM
Cc1c(C(=O)NC[C@@H]2COCCO2)oc2c1-c1nn(C[C@H]3COCCO3)cc1[C@H](C(F)(F)F)C2 (single isomer, unassigned) [Example 265-2, (4R or 4S)-N-{(2R)-1 ,4-dioxan-2-yl]methyl}-2-{[(2S)-1,4-dioxan-2-yl]methyl}-8-methyl-4-(trifluoromethyl)-4,5-dihydro-2H-furo[2,3-g]indazole-7-carboxamide]	1210 nM
Cc1ccnc(CCNC(=O)c2oc3c(c2C(F)(F)F)-c2nn(C[C@H]4COCCO4)cc2CC3)c1 [Example 231, 2-[(2S)-1,4-Dioxan-2-ylmethyl]-N-[2-(4-methylpyridin-2-yl)ethyl]-8-(trifluormethyl)-4,5-dihydro-2H-furo[2,3-g]indazol-7-carboxamide]	1390 nM
Cc1c(C(=O)NC[C@@H]2CCCO2)oc2c1-c1nn(Cc3ccc(C(=O)NC[C@@H]4CCCO4)nc3)cc1CC2 [Example 146, 8-methyl-N-[(2S)-tetrahydrofuran-2-ylmethyl]-2-[(6-{[(2S)-tetrahydrofuran-2-ylmethyl]carbamoyl}pyridin-3-yl)methyl]-4,5-dihydro-2H-furo[2,3-g]indazole-7-carboxamide]	47 nM
CC1(C)Cc2oc(C(=O)NC[C@@H]3CCCO3)c(C(F)(F)F)c2-c2nn(C[C@H]3COCCO3)cc21 [Example 268, 2-{[(2S)-1,4-dioxan-2-yl]methyl}-4,4-dimethyl-N-{[(2S)-oxolan-2-yl]methyl}-8-(trifluoromethyl)-4,5-dihydro-2H-furo[2,3-g]indazole-7-carboxamide]	38 nM
Cc1cc(CNC(=O)c2oc3c(c2C)-c2nn(Cc4ccccn4)cc2CC3)no1 [Example 8, 8-methyl-N-[(5-methyl-1,2-oxazol-3-yl)methyl]-2-(pyridin-2-ylmethyl)-4,5-dihydro-2H-furo[2,3-g]indazole-7-carboxamide]	210 nM
